This test addresses T1, CDK2 (Homo sapiens, UniProt P24941).
T1 construct: endogenous in cells; host or cells: OVCAR3 cells
Kind of test: Phospho-RB measurement in OVCAR3 cells (HTRF phospho-RB S807/811). Type of test: cell-based. The settings on record: phosphorylation of RB protein at S807/811, HTRF, 24 h compound treatment, 0.3 to 10,000 nM, read-out: pRb (uM). The method, then: The ability of compounds of Formula (I) to inhibit CDK2 was determined in OVCAR3 cells. Phosphorylation of RB protein at S807/811 were measured using HTRF phospho-RB cellular kits (Cat #64RBS807PEG) from Cisbio.
On Day 1, OVCAR3 cells were seeded into 96-well tissue-culture treated plates at 20,000 cells/well in 200 μL and incubated overnight at 37° C. in CO2 atmosphere. On Day 2, the cells were treated with test compounds at concentrations from 0.3 to 10,000 nM using HP D300 digital dispenser. Twenty-four hours after compound treatment, cell culture media was removed by flicking the plate and tapping the plate against clean paper towel. Immediately 30 μL 1× lysis buffer was supplemented from the kit and the plate was incubated at room temperature on shaker for 30 min. After homogenization by pipetting up and down, 8 μL cell lysate from 96-well cell culture plate was transferred to 384-well small volume white detection plate. 2 μL premixed detection solution was added and the plate was covered with sealer. To prepare the detection solution, d2 conjugated-phospho-RB antibody and Eu-cryptate conjugated phosphor-RB antibody were diluted into detection buffer following manufacturer's instruction.
Detection plates were incubated for 4 h at room temperature and read on ClarioStar (BMG Labtech) in TR-FRET mode ([…]). The TR-FRET ratio (665 nM1/620 nM) was plotted against the compound concentration and normalized to DMSO controls. Half maximal inhibition concentration (IC50) values are calculated with a four-parameter logistic fit using GraphPad Prism (version 8; La Jolla, CA).
Consider `O=S1(=O)C[C@@H]2[C@H](C1)[C@H]2Nc1nccc(-c2sc(C34CC(C3)C4)nc2-c2cccc(NS(=O)(=O)c3c(F)cccc3C(F)(F)F)c2F)n1` [Example 103, N-(3-(2-(bicyclo[1.1.1]pentan-1-yl)-5-(2-(((1R,5S,6r)-3,3-dioxido-3-thiabicyclo[3.1.0]hexan-6-yl)amino)pyrimidin-4-yl)thiazol-4-yl)-2-fluorophenyl)-2-fluoro-6-(trifluoromethyl)benzenesulfonamide], for which the IC50 amounted to 0.1 µM.
To `O=S1(=O)CC2(CC(Nc3nccc(-c4sc(C56CC(C(F)(F)F)(C5)C6)nc4-c4cccc(NS(=O)(=O)c5c(Cl)cccc5C(F)(F)F)c4F)n3)C2)C1` [Example 91, 2-chloro-N-(3-(5-(2-((2,2-dioxido-2-thiaspiro[3.3]heptan-6-yl)amino)pyrimidin-4-yl)-2-(3-(trifluoromethyl)bicyclo-[1.1.1]pentan-1-yl)thiazol-4-yl)-2-fluorophenyl)-6-(trifluoromethyl)benzenesulfonamide] belongs 0.15 µM; to `O=S1(=O)C[C@@H]2[C@H](C1)[C@H]2Nc1nccc(-c2sc(C34CC(C3)C4)nc2-c2cccc(NS(=O)(=O)c3c(OC(F)F)cccc3C(F)(F)F)c2F)n1` [Example 125, N-(3-(2-(bicyclo[1.1.1]pentan-1-yl)-5-(2-(((1R,5S,6r)-3,3-dioxido-3-thiabicyclo[3.1.0]hexan-6-yl)amino)pyrimidin-4-yl)thiazol-4-yl)-2-fluorophenyl)-2-(difluoromethoxy)-6-(trifluoromethyl)-benzenesulfonamide], 4.51 µM.
As for `CS(=O)(=O)[C@H]1CC[C@H](Nc2nccc(-c3sc(C4(C(F)(F)F)CC4)nc3-c3cccc(NS(=O)(=O)c4c(Cl)cccc4C(F)(F)F)c3F)n2)CC1` [Example 133, 2-chloro-N-(2-fluoro-3-(5-(2-(((1r,4r)-4-(methylsulfonyl)-cyclohexyl)amino)pyrimidin-4-yl)-2-(1-(trifluoromethyl)-cyclopropyl)thiazol-4-yl)phenyl)-6-(trifluoromethyl)benzene-sulfonamide], the IC50 amounted to 0.12 µM.
To `CC1(C)CCCN1c1nc(-c2cccc(NS(=O)(=O)c3c(F)cccc3F)c2F)c(-c2ccnc(NC3CC4(C3)CS(=O)(=O)C4)n2)s1` [Example 24, N-(3-(2-(2,2-dimethylpyrrolidin-1-yl)-5-(2-((2,2-dioxido-2-thiaspiro[3.3]heptan-6-yl)amino)pyrimidin-4-yl)thiazol-4-yl)-2-fluorophenyl)-2,6-difluorobenzenesulfonamide] belongs 1.46 µM.
Turning to `O=S1(=O)CC2(CC(Nc3nccc(-c4sc(N5C6CCC5CN(C5CCOCC5)C6)nc4-c4cccc(NS(=O)(=O)c5c(F)cccc5F)c4F)n3)C2)C1` [Example 148, N-(3-(5-(2-((2,2-dioxido-2-thiaspiro[3.3]heptan-6-yl)amino)pyrimidin-4-yl)-2-(3-(tetrahydro-2H-pyran-4-yl)-3,8-diazabicyclo[3.2.1]octan-8-yl)thiazol-4-yl)-2-fluorophenyl)-2,6-difluorobenzenesulfonamide], the IC50 worked out at 0.4 µM.
The result for `CS(=O)(=O)[C@H]1CC[C@@H](Nc2nccc(-c3sc(C45CC(F)(C4)C5)nc3-c3cccc(NS(=O)(=O)c4c(F)cccc4C(F)(F)F)c3F)n2)CC1` [Example 87, 2-fluoro-N-(2-fluoro-3-(2-(3-fluorobicyclo[1.1.1]pentan-1-yl)-5-(2-(((1s,4s)-4-(methylsulfonyl)cyclohexyl)-amino)pyrimidin-4-yl)thiazol-4-yl)phenyl)-6-(trifluoromethyl)benzenesulfonamide] reads 0.077 µM.
For the compound `CC1(c2nc(-c3cccc(NS(=O)(=O)c4c(F)cccc4F)c3F)c(-c3ccnc(NC4CC5(C4)CS(=O)(=O)C5)n3)s2)CCNCC1` [Example 14, N-(3-(5-(2-((2,2-dioxido-2-thiaspiro[3.3]heptan-6-yl)amino)pyrimidin-4-yl)-2-(4-methylpiperidin-4-yl)thiazol-4-yl)-2-fluorophenyl)-2,6-difluorobenzenesulfonamide], the IC50 amounted to 18.1 µM.
To `O=S1(=O)CCC(N2CC3CCC(C2)N3c2nc(-c3cccc(NS(=O)(=O)c4c(F)cccc4F)c3F)c(-c3ccnc(NC4CC5(C4)CS(=O)(=O)C5)n3)s2)CC1` [Example 38, N-(3-(5-(2-((2,2-dioxido-2-thiaspiro[3.3]heptan-6-yl)amino)-pyrimidin-4-yl)-2-(3-(1,1-dioxidotetrahydro-2H-thiopyran-4-yl)-3,8-diazabicyclo[3.2.1]octan-8-yl)thiazol-4-yl)-2-fluorophenyl)-2,6-difluorobenzenesulfonamide] belongs 8.12 µM.
On to `O=S1(=O)CC2(CC(Nc3nccc(-c4sc(C56CC7CC(CC(C7)C5)C6)nc4-c4cccc(NS(=O)(=O)c5c(F)cccc5F)c4F)n3)C2)C1` [Example 6, N-(3-(2-((3r,5r,7r)-adamantan-1-yl)-5-(2-((2,2-dioxido-2-thiaspiro[3.3]heptan-6-yl)amino)pyrimidin-4-yl)thiazol-4-yl)-2-fluorophenyl)-2,6-difluorobenzenesulfonamide], for which the IC50 amounted to 0.08 µM.
The result for `O=S1(=O)CC2(CC(Nc3nccc(-c4sc(C56CC(C5)C6)nc4-c4cccc(NS(=O)(=O)c5c(Cl)cccc5Cl)c4F)n3)C2)C1` [Example 31, N-(3-(2-(bicyclo[1.1.1]pentan-1-yl)-5-(2-((2,2-dioxido-2-thiaspiro[3.3]heptan-6-yl)amino)pyrimidin-4-yl)thiazol-4-yl)-2-fluorophenyl)-2,6-dichlorobenzenesulfonamide] reads 0.07 µM.
To `O=S1(=O)C[C@@H]2[C@H](C1)[C@H]2Nc1nccc(-c2sc(C34CC5CC(CC(C5)C3)C4)nc2-c2cccc(NS(=O)(=O)c3c(F)cccc3F)c2F)n1` [Example 77, N-(3-(2-((3R,5R,7R)-adamantan-1-yl)-5-(2-(((1R,5S,6r)-3,3-dioxido-3-thiabicyclo[3.1.0]hexan-6-yl)amino)pyrimidin-4-yl)thiazol-4-yl)-2-fluorophenyl)-2,6-difluorobenzenesulfonamide] belongs 0.24 µM; to `O=S1(=O)CC2(CC(Nc3nccc(-c4sc(C56CC(C5)C6)nc4-c4cccc(NS(=O)(=O)c5c(F)cccc5C(F)F)c4F)n3)C2)C1` [Example 47, N-(3-(2-(bicyclo[1.1.1]pentan-1-yl)-5-(2-((2,2-dioxido-2-thiaspiro[3.3]heptan-6-yl)amino)pyrimidin-4-yl)thiazol-4-yl)-2-fluorophenyl)-2-(difluoromethyl)-6-fluorobenzenesulfonamide], 0.05 µM.
On to `O=S1(=O)CC2(CC(Nc3nccc(-c4sc(N5C6CCC5CNC6)nc4-c4cccc(NS(=O)(=O)c5c(F)cccc5F)c4F)n3)C2)C1` [Example 141, N-(3-(2-(3,8-diazabicyclo[3.2.1]octan-8-yl)-5-(2-((2,2-dioxido-2-thiaspiro[3.3]heptan-6-yl)amino)pyrimidin-4-yl)thiazol-4-yl)-2-fluorophenyl)-2,6-difluorobenzenesulfonamide], for which the IC50 is 6.7 µM.
With `O=S1(=O)CC2(CC(Nc3nccc(-c4sc(C56CCC(C5)C6)nc4-c4cccc(NS(=O)(=O)c5c(F)cccc5F)c4F)n3)C2)C1` [Example 20], the IC50 amounted to 0.24 µM.
Regarding `C[C@@H]1CNC[C@@H](C)N1c1nc(-c2cccc(NS(=O)(=O)c3c(F)cccc3F)c2F)c(-c2ccnc(NC3CC4(C3)CS(=O)(=O)C4)n2)s1` [Example 59, N-(3-(2-((2R,6R)-2,6-dimethylpiperazin-1-yl)-5-(2-((2,2-dioxido-2-thiaspiro[3.3]heptan-6-yl)amino)pyrimidin-4-yl)thiazol-4-yl)-2-fluorophenyl)-2,6-difluorobenzenesulfonamide], the IC50 turned out to be 3.01 µM.
In the case of `O=S1(=O)C[C@@H]2[C@H](C1)[C@@H]2Nc1nccc(-c2sc(C34CCC(CC3)C4)nc2-c2cccc(NS(=O)(=O)c3c(F)cccc3F)c2F)n1` [Example 73, N-(3-(2-(bicyclo[2.2.1]heptan-1-yl)-5-(2-(((1R,5S,6s)-3,3-dioxido-3-thiabicyclo[3.1.0]hexan-6-yl)amino)pyrimidin-4-yl)thiazol-4-yl)-2-fluorophenyl)-2,6-difluorobenzenesulfonamide], the IC50 turned out to be 0.6 µM.
To `CC1C2(CC(Nc3nccc(-c4sc(C56CC(C5)C6)nc4-c4cccc(NS(=O)(=O)c5c(F)cccc5F)c4F)n3)C2)CS1(=O)=O` (stereo not shown) [Example 153, N-(3-(2-(bicyclo[1.1.1]pentan-1-yl)-5-(2-((1-methyl-2,2-dioxido-2-thiaspiro[3.3]heptan-6-yl)amino)pyrimidin-4-yl)thiazol-4-yl)-2-fluorophenyl)-2,6-difluorobenzenesulfonamide] belongs 0.06 µM; to `N#CC12CCC(CC1)N2c1nc(-c2cccc(NS(=O)(=O)c3c(F)cccc3F)c2F)c(-c2ccnc(NC3CC4(C3)CS(=O)(=O)C4)n2)s1` [Example 54, N-(3-(2-(1-cyano-7-azabicyclo[2.2.1]heptan-7-yl)-5-(2-((2,2-dioxido-2-thiaspiro[3.3]heptan-6-yl)amino)pyrimidin-4-yl)thiazol-4-yl)-2-fluorophenyl)-2,6-difluorobenzenesulfonamide], 0.2 µM.

The values above are taken from patent US12331026B2 (NiKang Therapeutics, Inc., priority 2022, dated 2025).
